According to patent US20130011376A1, “Methods for Enhancing Natural Killer Cell Proliferation and Activity” (GAMIDA CELL LTD., priority 2009, published 2013):

Key:
[1] = system: cord blood NK cells (CD56+); experiment: Ex-vivo proliferation of purified cord blood CD56+ NK cells cultured with cytokines and nicotinamide; assay type: cell-based, human; conditions: for proliferation of NK cells relative to growth factors (cytokines) alone: 14 days
Description: Cells were obtained from umbilical cord blood after normal full-term delivery (informed consent was given). Samples were collected and frozen within 24 hours postpartum. Briefly, cord blood was collected by gravity from delivered placentas, the leukocyte-rich fraction was separated by density gradient centrifugation, cells mixed with DMSO (10%) and then frozen at −80° C. Prior to use, the cells were thawed in Dextran buffer (Sigma, St. Louis, Mo., USA) containing 2.5% human serum albumin (HSA) (Bayer Corp. Elkhart, Ind., USA), and the cryoprotectant removed.
Cord blood (CB), bone marrow (BM) or peripheral blood (PB) cells were layered on a Ficoll-Hypaque gradient (1.077 g/mL; Sigma), and centrifuged at 800×g for 30 minutes for separation of the mononuclear cells. The cells in the interface layer were collected and washed three times in phosphate-buffered saline (PBS) (Biological Industries, Israel) containing 0.5% HSA. To purify the CD56+ cells, the mononuclear cell fraction was subjected to two cycles of immunomagnetic bead separation, using a “MiniMACS or CliniMACS CD56 progenitor cell isolation kit” (Miltenyi Biotec Bergisch, Gladbach, Germany), according to the manufacturer's recommendations. Briefly, CD56+ cells are reacted with CD56+ specific magnetic immunobeads, separated and with a magnetic separator, and purified from unbound cells by washing. The purity of the CD56+ population thus obtained is approximately 92%, as evaluated by flow cytometry.
2. Purified CD56+ or CD56+CD3− cells from total nuclear or mononuclear cells or from the fraction depleted from CD34+ or CD133+ cells were cultured in culture bags, T-Flasks or 24 well plates at a concentration of 1-100×10^4 cells/ml in MEMα/10% FCS or CellGro SCGM (Cell Genix)/5% Human Serum/LiforCell® FBS Replacement (Lifeblood Products) containing the following human recombinant cytokines:, interleukin-2 (IL-2) (5-50 ng/ml), interleukin-15 (IL-15), FLT-3 or SCF or FLT3 and SCF or IL-2 and IL-15 or IL-2 only (Perpo Tech, Inc., Rocky Hill, N.J., USA), with or without nicotinamide, and incubated at 37° C. in a humidified atmosphere of 5% CO2 in air. The cultures were topped up once or twice a week with the same volume of fresh medium containing growth factors with or without nicotinamide. Eventually cultures can be supplemented once or several times a week with IL-2 and or IL-2 and IL-15. To estimate the number of cells in culture, cell samples were stained with trypan blue for counting. At various time points, samples were taken for FACS analysis to assay the relative fractions of NK cells, CD56+CD3−, CD56+CD3+, CD34+CD56+, CD56+CD16+ and/or CD56+ NKG2A cells.
In order to calculate the number of NK cells on day 0, the total number of cells seeded on day 0 was multiplied by the percent of CD56+/CD3− cells measured by the FACS on day 0.
(§1) To determine total number of cells on day 7, 14 and 21, the cell count/ml was multiplied by the volume of the culture medium. In order to determine the number of NK cells in culture, the total number of cells in culture was multiplied by the percent of CD56+/CD3− cells measured with the FACS on days 7, 14 or 21. To measure fold expansion, total number of NK cells on days 7, 14 and 21 was divided by total number of NK cells seeded in culture on day-0.

[2] = system: peripheral blood CD56+ NK cells; experiment: Proliferation of peripheral blood CD56+ NK cells co-cultured with irradiated feeder cells; assay type: cell-based, human; conditions: 2.5 mM and 5 mM nicotinamide, day 21, irradiated feeder cells 10:1
Source text: NK cell cells from total mononuclear cell fraction, purified CD56+ or CD56+CD3− cells from total nuclear or mononuclear cells or from the fraction depleted from CD34+ or CD133+ cells, or CD3+ depleted, or CD3+/CD19+ depleted mononuclear cell fraction from PB, BM and CB can be cultured with irradiated stroma. For the preparation of irradiated stroma (feeder cells), mononuclear cells were irradiated with 3000 rad. After CD56 or CD56+CD3− selection or CD3 depletion the cells were counted and characterized by FACS analysis as described hereinabove. Cells were cultured as described hereinabove, with and without nicotinamide, with and without irradiated stroma at a concentration of irradiated cells of 20×10^5 cells/ml.
as §1
Peripheral blood-derived mononuclear cell fractions were CD3 depleted and then selected for CD56+ cells by immunobead purification. […]

Structure (SMILES): NC(=O)c1cccnc1 [nicotinamide]
- NK cell proliferation relative to growth factors (cytokines) alone ([1]; 0.5 mM to 5 mM nicotinamide, three weeks culture): up to 2.5 times
- proliferation of NK cells relative to growth factors (cytokines) alone ([1]; 2.5 mM nicotinamide, IL-2 and IL-15): greater than 4 times
- proliferation of NK cells relative to growth factors (cytokines) alone ([1]; 5 mM nicotinamide, compared with 2.5 mM): even greater
- expansion of cord blood CD56+ NK cultures vs cytokine-only controls ([1]; 1 to 7.5 mM nicotinamide, up to 3 weeks, Flt-3, IL-2 and IL-15): dose-dependent increase in the expansion
- proliferation of NK cells ([1]; all concentrations tested, as early as 14 days of culture): significantly enhanced proliferation
- fold increase of NK cells relative to control (cytokines+irradiated mononuclear cells) [2]: at least 4 times
